Laboratory results published in ChEMBL document CHEMBL1159025, “A Novel Hydrolyzable Tannin and Related Compounds Isolated from the Leaf Surface of Chrysolepis sempervirens” (1992).
Calls of active or inactive are those of the source. No cut-off for these calls is given here.

How the values were obtained:
[1] = tested on: Pseudomonas aeruginosa; test: Antimicrobial activity against Pseudomonas aeruginosa ATCC 25619 at 1000 ug/ml by macro-dilution broth culture method; assay type: functional, organism-based
[2] = tested on: HeLa; test: Cytotoxicity against human HeLa cells at 100 ug/ml; assay type: functional
[3] = tested on: Candida albicans; test: Antimicrobial activity against Candida albicans ATCC 18804 at 1000 ug/ml by macro-dilution broth culture method; assay type: functional, organism-based
[4] = tested on: Staphylococcus aureus; test: Antimicrobial activity against Staphylococcus aureus ATCC 6538 at 1000 ug/ml by macro-dilution broth culture method; assay type: functional, organism-based

Row | Compound | Activity [1] | Activity [2] [%] | Activity [3] | Activity [4]
1 | O=C1OC[C@H]2OC(=O)c3cc(O)c(O)c(O)c3-c3c(O)c(O)c(O)c4c3C(=O)O[C@H]([C@H]3OC(=O)c5c-4c(O)c(O)c(O)c5[C@H]3O)[C@@H]2OC(=O)c2cc(O)c(O)c(O)c2-c2c1cc(O)c(O)c2O [CASTALAGIN] | inactive | 70 | inactive | inactive
2 | O=C1OC[C@H]2OC(=O)c3cc(O)c(O)c(O)c3-c3c(O)c(O)c(O)c4c3C(=O)O[C@H]([C@@H](O)[C@@H](O)c3c(O)c(O)c(O)c-4c3C(=O)O)[C@@H]2OC(=O)c2cc(O)c(O)c(O)c2-c2c1cc(O)c(O)c2O [CHINQUAPINIC ACID] | inactive | 70 | inactive | inactive
3 | O=C1OCC2OC(=O)c3cc(O)c(O)c(O)c3-c3c(O)c(O)c(O)c4c3C(=O)OC(C2OC(=O)c2cc(O)c(O)c(O)c2-c2c1cc(O)c(O)c2O)C1OC(=O)c2c-4c(O)c(O)c(O)c2C1O (configuration not stated) [VESCALAGIN] | inactive | 70 | inactive | inactive
